In patent US10765114B2, “4-amino-6-(pyridyl and 2-substitutedphenyl)-picolinates and 6-amino-2-(pyridyl and 2-substitutedphenyl)-pyrimidine-4-carboxylates and their use as herbicides” (Dow AgroSciences LLC, priority 2013, dated 2020):

Experiments:
Assay in all cases: Post-Emergent Test III (Wheat and Barley)
[1] = tested on: VERPE (Persian speedwell); type: in vivo, Veronica persica; details: for Visual Growth Reduction (%) 21 Days After Application, VERPE: VERPE bird's-eye speedwell (Veronica persica), post-emergent
Experimental: (§1) Seeds of the desired test plant species were planted in Sun Gro MetroMix® 306 planting mixture, which typically has a pH of 6.0 to 6.8 and an organic matter content of about 30 percent, in plastic pots with a surface area of 103.2 square centimeters (cm^2). When required to ensure good germination and healthy plants, a fungicide treatment and/or other chemical or physical treatment was applied. The plants were grown for 7-36 days in a greenhouse with an approximate 14 h photoperiod which was maintained at about 18° C. during the day and 17° C. during the night. Nutrients and water were added on a regular basis and supplemental lighting was provided with overhead metal halide 1000-Watt lamps as necessary. The plants were employed for testing when they reached the second or third true leaf stage.
(§2) A weighed amount, determined by the highest rate to be tested, of each test compound was placed in a 25 mL glass vial and was dissolved in 4 mL of a 97:3 v/v mixture of acetone and DMSO to obtain concentrated stock solutions. […] The concentrated stock solutions obtained were diluted with 20 mL of an aqueous mixture containing acetone, water, isopropyl alcohol, DMSO, Agri-Dex crop oil concentrate, and X-77 surfactant in a 48:39:10:1.5:1.5:0.02 v/v ratio to obtain spray solutions containing the highest application rates. Additional application rates were obtained by serial dilution of 12 mL of the high rate solution into a solution containing 2 mL of 97:3 v/v mixture of acetone and DMSO and 10 mL of an aqueous mixture containing acetone, water, isopropyl alcohol, DMSO, Agri-Dex crop oil concentrate, and X-77 surfactant in a 48:39:10:1.5:1.5:0.02 v/v ratio to obtain ½×, ¼×, ⅛× and 1/16× rates of the high rate. Compound requirements are based upon a 12 mL application volume at a rate of 187 liters per hectare (L/ha). Formulated compounds were applied to the plant material with an overhead Mandel track sprayer equipped with 8002E nozzles calibrated to deliver 187 L/ha over an application area of 0.503 square meters at a spray height of 18 inches (43 cm) above the average plant canopy height. Control plants were sprayed in the same manner with the solvent blank.
(§3) The treated plants and control plants were placed in a greenhouse as described above and watered by subirrigation to prevent wash-off of the test compounds. After 21 dAYS, the condition of the test plants as compared with that of the untreated plants was determined visually and scored on a scale of 0 to 100 percent where 0 corresponds to no injury and 100 corresponds to complete kill and presented as indicated in Table A.
(§4) By applying the well-accepted probit analysis as described by J. Berkson in Journal of the American Statistical Society, 48, 565 (1953) and by D. Finney in “Probit Analysis” Cambridge University Press (1952), herbicidal injury of a specific compound at various rates can be used to calculate GR10, GR20, GR50, GR80 and GR90 values, which are defined as growth reduction factors that correspond to the effective dose of herbicide required to provide plant growth reduction (GR) of 10 percent, 20 percent, 50 percent, 80 percent and 90 percent, respectively. Probit analysis was applied to data collected from multiple dose rates of individual compounds utilizing the procedures explained in the following examples. The analysis of those dose rates is captured in the following tables.

[2] = tested on: BRSSS; type: in vivo; details: for Visual Growth Reduction (%) 21 Days After Application, BRSSS: BRSSS oil seed rape (Brassica napus), post-emergent
How it was run: (§5)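 Test compounds, formulated in acetone/DMSO with aqueous crop oil concentrate and surfactant, were applied over the canopy at 187 L/ha at several serially halved rates. Subirrigated plants were scored for percent injury at 21 days, with GR10–GR90 derived by probit analysis.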

[3] = tested on: HORSS; type: in vivo; details: crop; for Visual Growth Reduction (%) 21 Days After Application, HORSS: HORSS barley (Hordeum vulgare), post-emergent
How it was run: as §5

[4] = tested on: TRZSS; type: in vivo; details: crop; for Visual Growth Reduction (%) 21 Days After Application, TRZSS: TRZSS wheat (Triticum aestivum), post-emergent
How it was run: as §5

[5] = tested on: LAMPU (purple deadnettle); type: in vivo, Lamium purpureum; details: for Visual Growth Reduction (%) 21 Days After Application, LAMPU: LAMPU purple deadnettle (Lamium purpureum), post-emergent
Experimental: as §1, §2, §3, §4

[6] = tested on: KCHSC (kochia); type: in vivo, Kochia scoparia
How it was run: as §5

[7] = tested on: SASKR (Russian thistle); type: in vivo, Salsola tragus; details: for Visual Growth Reduction (%) 21 Days After Application, SASKR: SASKR Russian thistle (Salsola iberica), post-emergent
Experimental: as §1, §2, §3, §4

Structure (SMILES): Nc1cc(-c2ccc(Cl)c(Cl)c2Cl)nc(C(=O)O)c1Cl [Compound 93]
- Visual Growth Reduction (%) 21 Days After Application, VERPE ([1]; 17.5 g ai/ha): E (45-59)
- Visual Growth Reduction (%) 21 Days After Application, VERPE ([1]; 35 g ai/ha): D (60-74)
- Visual Growth Reduction (%) 21 Days After Application, VERPE ([1]; 70 g ai/ha): D (60-74)
- GR50, VERPE ([1]; VERPE, growth reduction of 50%, probit analysis, 21 days): 24 g ai/ha
- GR80, VERPE ([1]; VERPE, growth reduction of 80%, probit analysis, 21 days): >140 g ai/ha
- GR90, VERPE ([1]; VERPE, growth reduction of 90%, probit analysis, 21 days): >140 g ai/ha
- Visual Growth Reduction (%) 21 Days After Application, BRSSS ([2]; 17.5 g ai/ha): A (95-100)
- Visual Growth Reduction (%) 21 Days After Application, BRSSS ([2]; 35 g ai/ha): A (95-100)
- Visual Growth Reduction (%) 21 Days After Application, BRSSS ([2]; 70 g ai/ha): A (95-100)
- GR50, BRSSS ([2]; BRSSS, growth reduction of 50%, probit analysis, 21 days): 0 g ai/ha
- GR80, BRSSS ([2]; BRSSS, growth reduction of 80%, probit analysis, 21 days): 3 g ai/ha
- GR90, BRSSS ([2]; BRSSS, growth reduction of 90%, probit analysis, 21 days): 11 g ai/ha
- Visual Growth Reduction (%) 21 Days After Application, HORSS ([3]; 17.5 g ai/ha): C (75-84)
- Visual Growth Reduction (%) 21 Days After Application, HORSS ([3]; 35 g ai/ha): B (85-94)
- Visual Growth Reduction (%) 21 Days After Application, HORSS ([3]; 70 g ai/ha): B (85-94)
- GR10, HORSS ([3]; HORSS barley, growth reduction of 10%, probit analysis, 21 days): 1 g ai/ha
- GR20, HORSS ([3]; HORSS barley, growth reduction of 20%, probit analysis, 21 days): 1 g ai/ha
- Visual Growth Reduction (%) 21 Days After Application, TRZSS ([4]; 17.5 g ai/ha): C (75-84)
- Visual Growth Reduction (%) 21 Days After Application, TRZSS ([4]; 35 g ai/ha): B (85-94)
- Visual Growth Reduction (%) 21 Days After Application, TRZSS ([4]; 70 g ai/ha): B (85-94)
- GR10, TRZSS ([4]; TRZSS wheat, growth reduction of 10%, probit analysis, 21 days): 1 g ai/ha
- GR20, TRZSS ([4]; TRZSS wheat, growth reduction of 20%, probit analysis, 21 days): 1 g ai/ha
- Visual Growth Reduction (%) 21 Days After Application, LAMPU ([5]; 17.5 g ai/ha): A (95-100)
- Visual Growth Reduction (%) 21 Days After Application, LAMPU ([5]; 35 g ai/ha): A (95-100)
- Visual Growth Reduction (%) 21 Days After Application, LAMPU ([5]; 70 g ai/ha): A (95-100)
- GR50, LAMPU ([5]; LAMPU, growth reduction of 50%, probit analysis, 21 days): 1 g ai/ha
- GR80, LAMPU ([5]; LAMPU, growth reduction of 80%, probit analysis, 21 days): 2 g ai/ha
- GR90, LAMPU ([5]; LAMPU, growth reduction of 90%, probit analysis, 21 days): 8 g ai/ha
- pest or weed control at 17.5 g/ha ([6]; Bassia scoparia, post-emergence, 504 h, KCHSC kochia (Kochia scoparia), 17.5 g ai/ha, post-emergent, read-out: Visual Growth Reduction (%) 21 Days After Application, KCHSC): 85 to 94%
- pest or weed control at 35 g/ha ([6]; Bassia scoparia, post-emergence, 504 h, KCHSC kochia (Kochia scoparia), 35 g ai/ha, post-emergent, read-out: Visual Growth Reduction (%) 21 Days After Application, KCHSC): 85 to 94%
- pest or weed control at 70 g/ha ([6]; Bassia scoparia, post-emergence, 504 h, KCHSC kochia (Kochia scoparia), 70 g ai/ha, post-emergent, read-out: Visual Growth Reduction (%) 21 Days After Application, KCHSC): 95 to 100%
- GR50, KCHSC ([6]; KCHSC, growth reduction of 50%, probit analysis, 21 days): 2 g ai/ha
- GR80, KCHSC ([6]; KCHSC, growth reduction of 80%, probit analysis, 21 days): 10 g ai/ha
- GR90, KCHSC ([6]; KCHSC, growth reduction of 90%, probit analysis, 21 days): 27 g ai/ha
- Visual Growth Reduction (%) 21 Days After Application, SASKR ([7]; 17.5 g ai/ha): B (85-94)
- Visual Growth Reduction (%) 21 Days After Application, SASKR ([7]; 35 g ai/ha): B (85-94)
- Visual Growth Reduction (%) 21 Days After Application, SASKR ([7]; 70 g ai/ha): B (85-94)
- GR50, SASKR ([7]; SASKR, growth reduction of 50%, probit analysis, 21 days): 1 g ai/ha
- GR80, SASKR ([7]; SASKR, growth reduction of 80%, probit analysis, 21 days): 10 g ai/ha
- GR90, SASKR ([7]; SASKR, growth reduction of 90%, probit analysis, 21 days): 34 g ai/ha
